By pIC50 is commonly meant −log10 of the IC50, conventionally taken in molar units. A lower pIC50 goes with a large IC50.

pIC50: −log10 of the molar value.

This experiment addresses DNA polymerase beta (Homo sapiens, UniProt P06746). As to the kind of experiment: Inhibition of DNA polymerase beta lyase activity.
Consider `COc1c(/C=C/CO)cc2c(c1OC)OCO2`, for which the pIC50 was under 4.30. For `C=CC[C@@]12C=C(OC)C(=O)[C@](OC)([C@H](c3ccc4c(c3)OCO4)[C@H]1C)[C@@H]2O` the value was under 4.30; for `C=CC[C@@]12C=C(OC)C(=O)[C@](O)([C@H](c3ccc4c(c3)OCO4)[C@H]1C)[C@@H]2O`, 4.82; for `C=CC[C@@]12CC(=O)[C@@H](O)[C@@](OC)([C@@H]1O)[C@@H](c1ccc3c(c1)OCO3)[C@@H]2C` [CANELLIN C], 4.49. In turn, `C=CCc1c(OC)cc(OC)c2c1OCO2` had a pIC50 of 4.73. For `C=CC[C@@]12C=C(O)C(=O)[C@](O)([C@H](c3ccc4c(c3)OCO4)[C@H]1C)[C@@H]2O` the value was under 4.30; for `C=CCc1c(OC)cc2c(c1OC)OCO2`, 4.47. For `C=CC[C@]12C[C@@H](OC)C(=O)C(OC)=C1O[C@H](c1ccc3c(c1)OCO3)[C@H]2C` the value was 4.91; for `C=CCc1cc2c(c(OC)c1OC)OCO2` [DILLAPIOLE], under 4.30. The value for `COc1cc2c(c(OC)c1/C=C/CO)OCO2` was 4.36. Consider `C=CC[C@@]12C=C(O)C(=O)[C@](OC)([C@H](c3ccc4c(c3)OCO4)[C@H]1C)[C@@H]2O`, for which the pIC50 is 4.67. For `C=CC[C@@]12C[C@H](OC)[C@@H](O)[C@@](OC)([C@@H]1O)[C@@H](c1ccc3c(c1)OCO3)[C@@H]2C` [CANELLIN A] the value was 4.58.
